In US20030013660A1, “Dioxolane analogs for improved inter-cellular delivery” (Shire BioChem Inc., priority 2000, published 2003):
Read-outs that look alike come from different tables or passages of the source.

Columns and labels:
Assay in all cases: 3H-TdR (3H-thymidine) incorporation assay at 72 hr
MCF-7 = type: cell-based, Human; settings: 3H-TdR incorporation at 72 hr
CCRF-CEM = type: cell-based; settings: 3H-TdR incorporation at 72 hr
Procedure: (§1) Table of IC50 Values (μM) for Controls
(§2) Exposition of 24 hr to drug, wash, incubated for another 48 hr (total of 72 hr assay)
(§3) (3H-Thymidine Incorporation Assay)

CEM/dCK- = type: cell-based; settings: for IC50: deoxycytidine kinase-deficient CCRF-CEM; for Factor* (Resistance Factor = Ratio of dCK- on Wild-type CCRF-CEM): ratio of IC50 CEM/dCK- to CCRF-CEM, 24 h
Procedure: as §1, §2, §3

H-460 = type: cell-based, Human; settings: 3H-TdR incorporation at 72 hr
SF-268 = type: cell-based, Human; settings: 3H-TdR incorporation at 72 hr
[1] = Homo sapiens, MCF7, read-out: IC50 MCF-7 24 h, 24 h drug exposure, wash, another 48 hr
[2] = Homo sapiens, CCRF-CEM, read-out: IC50 CCRF-CEM 24 h, 24 h drug exposure, wash, another 48 hr
[3] = Homo sapiens, CCRF-CEM, read-out: IC50 CEM/dCK- 24 h, 24 h drug exposure, wash, another 48 hr
[4] = Homo sapiens, NCI-H460, read-out: IC50 H-460 24 h, 24 h drug exposure, wash, another 48 hr
[5] = Homo sapiens, SF-268, read-out: IC50 SF-268 24 h, 24 h drug exposure, wash, another 48 hr
[6] = read-out: IC50 CCRF-CEM 24 h, 24 h drug exposure, wash, another 48 hr
[7] = read-out: IC50 H-460 24 h, 24 h drug exposure, wash, another 48 hr
[8] = read-out: IC50 SF-268 24 h, 24 h drug exposure, wash, another 48 hr

Row | Compound | IC50 (MCF-7; [1]) [nM] | IC50 (CCRF-CEM; [2]) [nM] | IC50 (CEM/dCK-; [3]) [nM] | Factor* (Resistance Factor = Ratio of dCK- on Wild-type CCRF-CEM) (CEM/dCK-) | IC50 (H-460; [4]) [nM] | IC50 (SF-268; [5]) [nM] | IC50 (MCF-7; read-out: IC50 MCF-7 24 h, 24 h drug exposure, wash, another 48 hr, HYDROCHLORIDE) [nM] | IC50 (CCRF-CEM; read-out: IC50 CCRF-CEM 24 h, 24 h drug exposure, wash, another 48 hr, HYDROCHLORIDE) [nM] | IC50 (CEM/dCK-; read-out: IC50 CEM/dCK- 24 h, 24 h drug exposure, wash, another 48 hr, HYDROCHLORIDE) [nM] | IC50 (H-460; read-out: IC50 H-460 24 h, 24 h drug exposure, wash, another 48 hr, HYDROCHLORIDE) [nM] | IC50 (SF-268; read-out: IC50 SF-268 24 h, 24 h drug exposure, wash, another 48 hr, HYDROCHLORIDE) [nM] | IC50 (MCF-7; read-out: IC50 MCF-7 24 h, 24 h drug exposure, wash, another 48 hr) [nM] | IC50 (CCRF-CEM; [6]) [nM] | IC50 (H-460; [7]) [nM] | IC50 (SF-268; [8]) [nM] | IC50 (CEM/dCK-; read-out: IC50 CEM/dCK- 24 h, 24 h drug exposure, wash, another 48 hr) [nM]
1 | O=C(Nc1ccn([C@@H]2CO[C@H](COC(=O)OCCCCCl)O2)c(=O)n1)OCCCCCl [Compound 159, CARBONIC ACID 4-[4-(4- CHLORO- BUTOXYCARBONYLAMINO)-2- OXO-2H-PYRIMIDIN-1-YL]- [1,3]DIOXOLAN-2- YLMETHYL ESTER 4- CHLORO-BUTYL ESTER] | 720 | 380 | > 100000 | >263 | 870 | 1600 | – | – | – | – | – | – | – | – | – | –
2 | Nc1ccn([C@@H]2CO[C@H](COC/C=C/c3ccccc3)O2)c(=O)n1.O=C(O)C(F)(F)F [Compound 90, 4-AMINO-1-[2-(3- CINNAMYLOXYMETHYL)- [1,3]DIOXOLAN-4-YL]-1H- PYRIMIDIN-2-ONE TRIFLUOROACETATE SALT] | 61000 | 65000 | > 100000 | 1.5 | 95000 | > 100000 | – | – | – | – | – | – | – | – | – | –
3 | Nc1ccn([C@@H]2CO[C@H](COC(=S)Oc3ccccc3)O2)c(=O)n1 [Compound 147, THIOCARBONIC ACID O- [4(S)-(4′-AMINO-2′-OXO- 2H-PYRIMIDIN-1′-YL)- [1,3]DIOXOLAN-2(S)- YLMETHYL] ESTER O- PHENYL ESTER] | 110 | 25 | > 100000 | >4000 | 60 | 17 | – | – | – | – | – | – | – | – | – | –
4 | CC(C)(C)OC(=O)N(CCCCC(=O)Nc1ccn([C@@H]2CO[C@H](CO)O2)c(=O)n1)Cc1ccccc1 [Compound 115, BENZYL-{4-[1-(2- HYDROXYMETHYL- [1,3]DIOXOLAN-4-YL)-2- OXO-1,2-DIHYDRO- PYRIMIDIN-4- YLCARBAMOYL]-BUTYL}- CARBAMIC ACID TERT!- BUTYL ESTER] | 150 | 200 | > 100000 | >500 | 380 | 620 | – | – | – | – | – | – | – | – | – | –
5 | CC(C)C(NC(=O)OCc1ccccc1)C(=O)OC[C@H]1OC[C@@H](n2ccc(/N=C/N(C)C)nc2=O)O1 (stereo partly drawn) [Compound 131, (2S,4S)-2- (BENZYLOXYCARBONYL-L- VALINOXYMETHYL)-4-(4′- N,N- DIMETHYLAMINOMETHYLENE- CYTOSIN-1′-YL)-1,3- DIOXOLANE] | 100 | 21 | 83000 | 3,952 | 110 | 12 | – | – | – | – | – | – | – | – | – | –
6 | O=C(Nc1ccn([C@@H]2CO[C@H](COC(=O)c3ccccc3)O2)c(=O)n1)OCc1ccccc1 [Compound 153, BENZOIC ACID 4-(4- BENZYLOXYCARBONYLAMINO- 2-OXO-2H-PYRIMIDIN-1- YL)-[1,3]DIOXOLAN-2- YLMETHYL ESTER] | 39000 | 210 | > 100000 | >476 | 46000 | 59000 | – | – | – | – | – | – | – | – | – | –
7 | COC1(OC[C@H]2OC[C@@H](n3ccc(N)nc3=O)O2)CCCCC1 [Compound 113, 4-AMINO-1-[2-(1- METHOXY- CYCLOHEXYLOXYMETHYL)- [1,3]DIOXOLAN-4-YL]-1H- PYRIMIDIN-2-ONE] | 480 | 60 | > 100000 | >1667 | 240 | 1100 | – | – | – | – | – | – | – | – | – | –
8 | CC(C(=O)OC[C@H]1OC[C@@H](n2ccc(N)nc2=O)O1)c1ccccc1.Cl (stereo partly shown) [Compound 106, HYDROCHLORIDE] | – | – | – | – | – | – | 37 | 10 | 46000 | 14 | 95 | – | – | – | – | –
9 | COC(=O)CCCC(=O)Nc1ccn([C@@H]2CO[C@H](COC(=O)CCCC(=O)OC)O2)c(=O)n1 [Compound 80, PENTANEDIOIC ACID 4-[4- (4-METHOXYCARBONYL- BUTYRYLAMINO)-2-OXO- 2#H!-PYRIMIDIN-1-YL]- [1,3]DIOXOLAN-2- YLMETHYL ESTER METHYL ESTER] | 670 | 460 | > 100000 | 217 | 1800 | 3500 | – | – | – | – | – | – | – | – | – | –
10 | CC(OC[C@H]1OC[C@@H](n2ccc(N)nc2=O)O1)OC1CCCCC1 (stereo partly shown) [Compound 92, 4-AMINO-1-[2-(1- CYCLOHEXYLOXY- ETHOXYMETHYL)- [1,3]DIOXOLAN-4-YL]-1H- PYRIMIDIN-2-ONE] | 1600 | 1300 | > 100000 | 77 | 2100 | 4200 | – | – | – | – | – | – | – | – | – | –
11 | Nc1ccn([C@@H]2CO[C@H](COC3Sc4ccccc4S3)O2)c(=O)n1 [Compound 138, 4-AMINO-1-[2- (BENZO[1,3]DITHIOL-2- YLOXYMETHYL)- [1,3]DIOXOLAN-4-YL]-1H- PYRIMIDIN-2-ONE] | 1500 | 530 | 58000 | 109 | 920 | 2100 | – | – | – | – | – | – | – | – | – | –
12 | CCCCCCNC(=O)Nc1ccn([C@@H]2CO[C@H](COC(=O)NCCCCCC)O2)c(=O)n1 [Compound 119, HEXYL-CARBANIC ACID 4- [4-(3-HEXYL-UREIDO)-2- OXO-2#H!-PYRIMIDIN-1- YL]-[1,3]DIOXOLAN-2- YLMETHYL ESTER] | 27000 | 56000 | 96000 | ˜2 | 17000 | 94000 | – | – | – | – | – | – | – | – | – | –
13 | Nc1ccn([C@@H]2CO[C@H](COC3OCCO3)O2)c(=O)n1 [Compound 40, 4-AMINO-1-[2- ([1,3]DIOXOLAN-2- YLOXYMETHYL)- [1,3]DIOXOLAN-4-YL]-1H- PYRIMIDIN-2-ONE] | 70 | 89 | > 100000 | 1,123 | 320 | 900 | – | – | – | – | – | – | – | – | – | –
14 | CC(C(=O)OC[C@H]1OC[C@@H](n2ccc(/N=C/N(C)C)nc2=O)O1)c1ccccc1 (stereo partly drawn) [Compound 70, (2S,4S)-2-(2″- METHYLPHENYLACETOXY)MET HYL-4-(4′-N,N- DIMETHYLAMINOMETHYLENE- CYTOSIN-1′-YL)-1,3- DIOXOLANE] | 47 | 8.8 | 30000 | 3,409 | 36 | 270 | – | – | – | – | – | – | – | – | – | –
15 | Nc1ccn([C@@H]2CO[C@H](COC(=O)CCCCCNCc3ccccc3)O2)c(=O)n1 [Compound 84, 6-Benzylamino-hexanoic acid 4-(4-amino-2-oxo-2H-pyrimidin-1-yl)-[1,3]dioxolan-2-ylmethyl ester] | – | – | – | 5,000 | – | – | – | – | – | – | – | 9.4 | 12 | 14 | 360 | –
16 | CCOC(OCC)OC[C@H]1OC[C@@H](n2ccc(N)nc2=O)O1 [Compound 39, 4-AMINO-1-(2- DIETHOXYMETHOXYMETHYL- [1,3]DIOXOLAN-4-YL)-1H- PYRIMIDIN-2-ONE] | – | 47 | > 100000 | – | 160 | 320 | – | – | – | – | – | – | 62 | 120 | 390 | –
17 | Nc1ccn([C@@H]2CO[C@H](COC(=O)OCc3ccccc3)O2)c(=O)n1 [Compound 57, CARBONIC ACID 4-(4- AMINO-2-OXO-2H- PYRIMIDIN-1-YL)- [1,3]DIOXOLAN-2- YLMETHYL ESTER BENZYL ESTER] | 19 | 4.8 | 32000 | – | – | 47 | – | – | – | – | – | – | – | – | – | –
18 | Nc1ccn([C@@H]2CO[C@H](COC(=O)Oc3ccccc3)O2)c(=O)n1 [Compound 42, CARBONIC ACID 4-(4- AMINO-2-OXO-2H- PYRIMIDIN-1-YL)- [1,3]DIOXOLAN-2- YLMETHYL ESTER PHENYL ESTER] | – | 2.2 | 82000 | – | 10 | 22 | – | – | – | – | – | – | 2.3 | 7 | 26 | > 100000
19 | CC(C)OC(=O)OC[C@H]1OC[C@@H](n2ccc(N)nc2=O)O1.O=C(O)C(F)(F)F [Compound 67, CARBONIC ACID 4-(4- AMINO-2-OXO-2H- PYRIMIDIN-1-YL)- [1,3]DIOXOLAN-2- YLMETHYL ESTER ISOPROPYL ESTER TRIFLUOROACETATE SALT] | – | 180 | > 100000 | 556 | 82 | 400 | – | – | – | – | – | – | – | – | – | –
